How the values were obtained:
Assay type in all cases: physicochemical
[1] = Solubility in water as a function of pH; conditions: aqueous buffer, pH≥4.5 (practically insoluble)
Protocol: (§1) The compound of formula (I) as a free base compound has a quite strong lipophilic behavior (Log P 4.13). […] Taking into account these characteristics, and based on pH requirements for intravenous (IV) solutions which is generally set ≥4.0, solubility studies were carried out to identify solubilizers able to substantially increase the aqueous solubility of the compound of formula (I).

[2] = Formulation stability with SBE-beta-CD (assay and impurities by HPLC, stressed storage)
Protocol: 500 mL batches of each formulation (target pH 4.0 and pH 5.5) are prepared according to the recipe in Table 2 below. The vials used were 50 mL 20 mm Crown, type I, Vial (Gerresheimer), part number 80018303030. The stoppers used were 20 mm S10-F451 Stopper 4432/50 Gray, (Flurotec™ On Plug Only) B2-40 Coating Westar RS part number 19700021.
Each formulation is filtered with a 0.22 μm nylon syringe filter. Vials are filled with 10 mL of formulation, stoppered, sealed and placed at 40° C./75% relative humidity (RH) or at 60° C. (uncontrolled humidity) for up to 14 days. Each vial is placed inverted so that maximum stopper contact with the solution during the stability conditions can be achieved. At each time-point, vials from both conditions and formulations are pulled and analyzed for assay and impurities.
The assay and impurities as measured using the same HPLC method as used for assessing solubility.

[3] = Log P of free base
Protocol: as §1

[4] = Formulation pH 4.0 (2 mg/mL, SBE-beta-CD 40 mg/mL), 40° C./75% RH, time zero, pH exp 4.1
[5] = Formulation pH 4.0, 40° C./75% RH, Day 1, pH exp 4.1
[6] = Formulation pH 4.0, 40° C./75% RH, Day 3, pH exp 4.0
[7] = Formulation pH 4.0, 40° C./75% RH, Day 7, pH exp 4.1
[8] = Formulation pH 4.0, 40° C./75% RH, Day 14, pH exp 4.1
[9] = Formulation pH 4.0, 60° C., Day 1, pH exp 4.1
[10] = Formulation pH 4.0, 60° C., Day 3, pH exp 4.1
[11] = Formulation pH 4.0, 60° C., Day 7, pH exp 4.1
[12] = Formulation pH 4.0, 60° C., Day 14, pH exp 4.1
[13] = Formulation pH 4.0, 60° C., time zero, pH exp 4.1
[14] = Formulation pH 5.5 (2 mg/mL, SBE-beta-CD 40 mg/mL), 40° C./75% RH, time zero, pH exp 5.6
[15] = Formulation pH 5.5, 40° C./75% RH, Day 1, pH exp 5.6
[16] = Formulation pH 5.5, 40° C./75% RH, Day 3, pH exp 5.6
[17] = Formulation pH 5.5, 40° C./75% RH, Day 7, pH exp 5.7
[18] = Formulation pH 5.5, 40° C./75% RH, Day 14, pH exp 5.6
[19] = Formulation pH 5.5, 60° C., Day 1, pH exp 5.6
[20] = Formulation pH 5.5, 60° C., Day 3, pH exp 5.6
[21] = Formulation pH 5.5, 60° C., Day 7, pH exp 5.7
[22] = Formulation pH 5.5, 60° C., Day 14, pH exp 5.7
[23] = Formulation pH 5.5, 60° C., time zero, pH exp 5.6

## COc1cc(N2CCNCC2)ccc1Nc1ncc2c(n1)-n1ccc(C(=O)Nc3c(C)cccc3C)c1CC2 [compound of formula (I)]
[1]
  solubility: ≤ 20 µg/mL
[2]; 60° C. stressed conditions, formulation at pH 5.5 compared to pH 4.0
  stability of formulation with SBE-beta-CD: lower impurities and lower loss of assay
[2]; [4]
  Assay (% of theoretical value of compound of formula (I)): 96.8%
  Total impurities: 1.1 % area
[2]; [5]
  Assay (% of theoretical value of compound of formula (I)): 98.1%
  Total impurities: 1.1 % area
[2]; [6]
  Assay (% of theoretical value of compound of formula (I)): 98.7%
  Total impurities: 1.3 % area
[2]; [7]
  Assay (% of theoretical value of compound of formula (I)): 103.1%
  Total impurities: 1.3 % area
[2]; [8]
  Assay (% of theoretical value of compound of formula (I)): 97.7%
  Total impurities: 1.4 % area
[2]; [9]
  Assay (% of theoretical value of compound of formula (I)): 97.9%
  Total impurities: 1.4 % area
[2]; [10]
  Assay (% of theoretical value of compound of formula (I)): 98.3%
  Total impurities: 2.0 % area
[2]; [11]
  Assay (% of theoretical value of compound of formula (I)): 97.9%
  Total impurities: 3.4 % area
[2]; [12]
  Assay (% of theoretical value of compound of formula (I)): 87.0%
  Total impurities: 4.7 % area
[2]; [13]
  Assay (% of theoretical value of compound of formula (I)): 96.8%
  Total impurities: 1.1 % area
[2]; [14]
  Assay (% of theoretical value of compound of formula (I)): 99.0%
  Total impurities: 1.1 % area
[2]; [15]
  Assay (% of theoretical value of compound of formula (I)): 97.9%
  Total impurities: 1.2 % area
[2]; [16]
  Assay (% of theoretical value of compound of formula (I)): 100.6%
  Total impurities: 1.3 % area
[2]; [17]
  Assay (% of theoretical value of compound of formula (I)): 100.1%
  Total impurities: 1.2 % area
[2]; [18]
  Assay (% of theoretical value of compound of formula (I)): 94.7%
  Total impurities: 1.3 % area
[2]; [19]
  Assay (% of theoretical value of compound of formula (I)): 97.9%
  Total impurities: 1.3 % area
[2]; [20]
  Assay (% of theoretical value of compound of formula (I)): 100.6%
  Total impurities: 1.5 % area
[2]; [21]
  Assay (% of theoretical value of compound of formula (I)): 100.1%
  Total impurities: 2.0 % area
[2]; [22]
  Assay (% of theoretical value of compound of formula (I)): 97.7%
  Total impurities: 3.0 % area
[2]; [23]
  Assay (% of theoretical value of compound of formula (I)): 99.0%
  Total impurities: 1.1 % area
[2]; pH 4.0 versus pH 5.5 at 40° C./75% RH stressed conditions
  stability of formulation with SBE-beta-CD: similar
[3]
  logP: 4.13

— patent US20250049926A1, “PHARMACEUTICAL COMPOSITIONS COMPRISING MODIFIED BETACYCLODEXTRINS” (priority 2021, published 2025)
